The test system of series [1] is SS cells. Briefly: Antisickling study with SS cells under hypoxia (2.5% O2). The series is classed as cell-based, human. The settings on record: Homo sapiens, 20% hematocrit, […] O2, 37 °C, read-out: Sickling Inhibition. The method, then:
(§1) For our previously studied compounds (e.g., INN-312, TD-7, SAJ-310, INN-298) that incorporate methoxyPy substitution to vanillin analogs, we observed a significant increase in functional and biological activity as a result of increased protein interactions[31],[33],[35],[36]. We therefore expected similar effects for VZHE-039, which we tested by following VZHE-039 activity (measured by Hb adduct formation, P50-shift and RBC sickling inhibition) using SS blood. Briefly, we incubated 0.5, 1, and 2 mM concentrations of VZHE-039 with whole blood suspensions from subjects with homozygous SCD (Hct of 20%) under hypoxic conditions (2.5% O2/97.5% N2) at 37 °C for 2 h for expected peak adduct. Aliquot blood samples were drawn into a fixative (2% glutaraldehyde solution), and sickling was assessed by microscopy[31],[33],[35],[36]. Aliquot samples were also subjected to cation-exchange HPLC analyses to assess the degree of Hb modification to the high-affinity adduct form (Hb adduct formation), as well as standard O2 equilibrium curves (OEC) to assess P50-shifts using hemox analyzer[31],[33],[35],[36]. […] The improved potency of Voxelotor has been attributed to reduced binding stoichiometry, i.e. while Voxelotor binds Hb at a 1:1 ratio, VZHE-039 binds Hb at a 2:1 ratio. […] This observation, as will be discussed later is likely due to a meaningful contribution from the novel O2-independent antisickling activity as result of the strong contact with the αF-helix.
(§2) The effect of VZHE-039 on RBC sickling, Hb modification, and Hb oxygen equilibrium was studied utilizing samples from consented individuals with homozygous SCD following previous procedure. Briefly, blood suspended in Hemox buffer and supplemented with glucose and bovine serum albumin, to a final hematocrit of 20% were incubated under air in the absence or presence of 0.5 mM, 1 mM and 2 mM VZHE-039 at 37 °C for 1 h. This was followed by incubating the suspensions under hypoxic conditions (2.5% O2/97.5% N2) at 37 °C for 2 h. Aliquot samples were obtained and fixed with 2% glutaraldehyde solution without exposure to air, and then subjected to microscopic morphological analysis of bright field images (at × 40 magnification) of single layer cells on an Olympus BX40 microscope fitted with an Infinity 2 camera (Olympus), and the coupled Image Capture software. Leftover samples were washed in phosphate-buffer saline, and hemolyzed in hypotonic lysis buffer for subsequent Hb-modification and oxygen equilibrium analyses.

Series [2] has as its target T1, HbS (Homo sapiens, UniProt P69905).
T1 construct: whole blood suspensions from subjects with homozygous SCD (Hct of 20%); from tissue; host or cells: whole blood / red blood cells of patients with homozygous SS sickle cell disease; lysate for HPLC and OEC
Briefly: Hb modification (HbS adduct formation) by cation-exchange HPLC of lysates from SS cells. The series is classed as cell-based. The note with it: for Hb Modification: SS cells, 20% hematocrit, HPLC of hemolysates. Here is the method: as §1, §2
Finally, for the Hb adduct formation studies, the above clarified lysates were subjected to cation-exchange HPLC (Hitachi D-7000 Series, Hitachi Instruments, Inc., San Jose, CA), using a weak cation-exchange column (Poly CAT A: 30 mm × 4.6 mm, Poly LC, Inc., Columbia, MD). A commercial standard consisting of approximately equal amounts of composite HbF, HbA, HbS and HbC (Helena Laboratories, Beaumont, TX), was utilized as the reference for isotypes. The areas of new peaks, representing HbS adducts, were obtained, calculated as percentage fractions of total Hb area, and reported as levels of modified Hb.

The target of series [3] is T2, Hb (Homo sapiens, UniProt P69905).
T2 construct: whole blood suspensions from subjects with homozygous SCD (Hct of 20%); from tissue; host or cells: whole blood / red blood cells of patients with homozygous SS sickle cell disease; lysate for HPLC and OEC
T2 sequence (P69905 2-142): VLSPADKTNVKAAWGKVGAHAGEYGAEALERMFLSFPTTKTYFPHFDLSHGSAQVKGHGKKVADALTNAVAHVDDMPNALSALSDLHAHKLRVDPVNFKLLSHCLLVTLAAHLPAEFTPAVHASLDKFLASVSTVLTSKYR
T2 sequence (P68871 with tags, fused parts or gaps E7V partner): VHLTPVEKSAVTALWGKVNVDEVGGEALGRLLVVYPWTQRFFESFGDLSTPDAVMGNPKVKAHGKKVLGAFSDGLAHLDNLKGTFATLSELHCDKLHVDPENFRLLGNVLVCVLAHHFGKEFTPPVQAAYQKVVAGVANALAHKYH
The series is described as follows: Oxygen equilibrium (P50 shift) of lysates from SS cells, Hemox Analyzer. The series is classed as cell-based. The settings on record: 20% hematocrit. Here is the method: as §1, §2
For the oxygen equilibrium studies, 100 μL aliquot samples from the above clarified lysate were added to 4 mL of 0.1 M potassium phosphate buffer, pH 7.0, in cuvettes and subjected to hemoximetry analysis using a Hemox Analyzer (TCS Scientific Corp.) to determine the P50 values.

Series [4] deals with SS cells. Briefly: Antisickling activity under anoxia (100% N2). The series is classed as cell-based, human. The note with it: 2 mM, 100% N2 gas, 30 min. The source says:
Therefore, another objective in the targeted design of VZHE-039 was to complement its O2-dependent antisickling activity—common to this class of aromatic aldehydes—with an improved O2-independent antisickling activity through proximity-enhanced auxiliary interactions with the αF-helix. Findings from the VZHE-039 crystallographic studies indicate that we achieved the structural objective of enhanced interactions between the methylhydroxy substituent and the αF-helix. We further asked whether these enhanced interactions would translate to an improvement in the O2-independent antisickling activity—as hypothesized. We therefore explored the potential O2-independent activity of VZHE-039, by testing its antisickling properties under complete deoxygenated/anoxic conditions (i.e., 100% N2). […] For internal control purposes, aliquots from samples used for testing for antisickling studies at 2.5% O2 (see above) were also used for testing the antisickling effect of these compounds under 100% N2 gas, therefore, helping elucidate the antisickling effects due to O2-dependent activity of the compounds. Since this experimental design utilized aliquots of the same samples under different gas conditions, it ensured that the assay was free of any potential errors associated with variability in hematocrit and accuracy in drug concentrations.
We conducted two studies to test the antisickling property of VZHE-039 under anoxia to establish the secondary mechanism of action. In the first study, we conducted antisickling studies as described above and also previously reported (2.5% O2)[33], using 2 mM concentrations of VZHE-039, and the controls vanillin, TD-7 and Voxelotor. After 1 h, aliquot samples were fixed with 2% glutaraldehyde without exposure to air. Then the incubation chamber was opened and exposed to air for 15 min to ensure complete re-oxygenation and reversal of the sickled cells to normal round cells. Reversal was confirmed by microscopy. The incubation chamber was then closed, and the assay was repeated under 100% nitrogen gas for 30 min, at which point aliquots were obtained and fixed. Aliquot samples were then subjected to microscopic morphological analysis of bright field images as previously described. Resulting sickled cells (percentages) were compared across samples, and between aliquots of the same samples that had been obtained either under 2.5% oxygen or 100% nitrogen.

Another series has as its system SS RBCs. Briefly: pO2-dependent degree of sickling in Hemox Analyzer. The settings on record: 2 mM, Hct 20%. Type of series: cell-based, human. Here is the method: In a confirmatory study, a pO2 dependent degree of sickling of VZHE-039 at 1 and 2 mM doses, with Voxelotor as a control was performed using a Hemox analyzer. […] Oksenberg et al.reported similar observations with Voxelotor[28], where the compound lost its potent antisickling activity at low pO2 values.
The second study established pO2 dependent degree of sickling of VZHE-039, with Voxelotor as a control. Concurrently, blood samples, hematocrit 20%, were incubated without any drug (control) or with 1, or 2 mM VZHE-039 at 37 °C for 1 h. A second control sample was incubated with 2 mM Voxelotor. At conclusion, 100 uL aliquots of each suspension were mixed with 2.5 mL Hemox buffer (pH 7.4, supplemented with antifoam), and transferred into the sample chamber of the Hemox Analyzer. Compressed air was then flushed through the sample to ensure complete oxygenation (at 150 mmHg). Nitrogen gas was then introduced into the sample chamber, and 50 uL aliquots were obtained and fixed at defined pO2 values. At conclusion, all fixed samples were subjected to microscopic analysis for their degree of sickling, and results were plotted using Prism Graph Pad software. The experiments were conducted in three replicates on different days, and mean and standard deviation values are reported.

The conditions of series [5]: cited from earlier work.
The conditions of series [6]: experimental animals and humans; cited from earlier work.
The next series concerns the target T3, HbA (Homo sapiens, UniProt P69905).
T3 construct: fresh normal adult whole blood (Hct of 30%); from tissue; host or cells: normal adult whole blood (red blood cells)
Briefly: In vitro time-dependent Hb oxygen equilibrium study using normal whole blood (tonometry). The series is classed as cell-based. The note with it: 2 mM, Hct 30%, 37 °C. From the text: The antisickling activity of aromatic aldehydes is dependent on Schiff-base interaction between the aldehyde moiety and the Hb αVal1 amines (Schiff-base adduct) and the increase in the protein affinity for oxygen[30]–[40]. […] To overcome this pharmacologic limitation, Tucaresol and Voxelotor, two potent antisickling agents utilized a ortho-hydroxyl moiety (relative to the aldehyde group) on the benzaldehyde ring to form intramolecular hydrogen-bond interaction with the aldehyde group to form hemiacetal-like moiety, which led to significant reduction in oxidative metabolism of the aldehyde[28],[50]. […] VZHE-039, however, incorporates this ortho-hydroxyl moiety on the benzene ring, which is expected to increase its oxidative metabolic stability. This was tested by incubating 2 mM of VZHE-039 (with vanillin and TD-7 as controls) with fresh normal adult whole blood (Hct of 30%) at 37 °C as a surrogate measure of oxidative metabolism. At defined time points (1, 4, 8, 12 and 24 h), aliquot samples were drawn, and subsequently analyzed for their P50-shifts relative to the initial P50 value, using three-point tonometry. In parallel, an untreated control sample was also assessed to control for any time-dependent, but drug-independent changes in P50 values. […] These findings confirm the importance of the ortho-hydroxyl group in aromatic aldehydes in preventing or reducing enzymatic metabolism of aldehyde in RBCs.
Normal whole blood samples (hematocrit 30%) in the absence (control) or presence of 2 mM concentration VZHE-039 (solubilized in DMSO) were incubated at 37 °C for 24 h with shaking (at 140 rpm). At 1, 4, 8, 12 and 24 h time intervals, aliquots of this mixture were removed and then subjected to OEC analysis using tonometry as previously described. Vanillin and TD-7 were used as positive controls, while DMSO was tested as negative control. Briefly, the compound-treated blood samples were incubated in IL 237 tonometers (Instrumentation Laboratories, Inc. Lexington, MA) for approximately 10 min at 37 °C, and allowed to equilibrate at oxygen tensions 6, 20, and 40 mmHg. The samples were then aspirated into an ABL 700 Automated Blood Gas Analyzer (Radiometer) to determine the pH, partial pressure of CO2 (pCO2), partial pressure of oxygen (pO2), and Hb oxygen saturation values (SO2). The measured values of pO2 (mmHg) and SO2 at each pO2 value were then subjected to a non-linear regression analysis using the program Scientist (Micromath, Salt Lake City, UT) to estimate P50 as previously reported.

For series [7], the system named is SS cells. More on the design: method as in PMID 30289405. The settings on record: previously observed, cited from earlier work.
Series [8] has as its target T1, HbS. Also noted: method as in PMID 30289405. The note with it: previously observed, cited from earlier work.
Series [9] addresses T2, Hb. More on the design: method as in PMID 30289405. The settings on record: previously observed, cited from earlier work.

SMILES strings stand for the structures. Entries after “also recorded” stand apart in the source; their conditions may differ. Read-outs that look alike come from different tables or passages of the source.

T1 sequence (P69905 2-142): as the sequence (P69905 2-142) above
T1 sequence (P68871 with tags, fused parts or gaps E7V partner): as the sequence (P68871 with tags, fused parts or gaps E7V partner) above
T3 sequence (P69905 2-142 limits assumed): as the sequence (P69905 2-142) above
T3 sequence (P68871 2-147 partner limits assumed): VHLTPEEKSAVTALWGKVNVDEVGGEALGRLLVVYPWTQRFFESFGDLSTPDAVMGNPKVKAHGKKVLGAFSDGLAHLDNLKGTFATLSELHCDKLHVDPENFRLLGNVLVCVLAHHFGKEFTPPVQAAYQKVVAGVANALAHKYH

Regarding `CC(C)n1nccc1-c1ncccc1COc1cccc(O)c1C=O` [Voxelotor, reference compound], the inhibition at 500 µM in the series with SS cells [1] (0.5 mM) came to 56%. Moreover, in the series on SS cells [1] (1 mM), the inhibition at 1000 µM came to 98%. Further, the “Hb Modification” value at HbS [2] (0.5 mM) turned out to be 55%; on HbS [2] (1 mM) it was 100%. In addition, the “Hb modification (in words)” value at HbS [2] (2 mM, samples of the anoxia study) is “complete Hb modification to the high-O2-affinity form”. In addition, the “P50 Shift (ΔP50)” value on Hb [3] (0.5 mM) came out at 41%; at Hb [3] (1 mM), 80%. Further, the “Antisickling effect under anoxia (in words)” value (“Antisickling effect” below) with SS cells [4] was “lost its inherent antisickling effects remarkably under anoxic conditions”. In addition, the “pO2-dependent sickling inhibition (in words)” value in the series on SS RBCs is “completely prevent sickling at high pO2; also recorded: lost this capability at low pO2”. In addition, in [5], the “Partitioning into the RBC compartment” value is on record as 90%. For the same compound, the Half-life in [6] is given as > 12 h.

As for `COc1ccc(OCc2cccc(CO)n2)c(C=O)c1` [TD-7], the “Time of maximum effect (P50-shift)” value at HbA is listed as 1 h. The “Reduction in activity (P50-shift) at 24 h” value at HbA (relative to maximum effect) was ~ 45%. Besides, the “Antisickling effect” value with SS cells [4] is reported as “showed some antisickling effect under anoxia, it was significantly less potent than VZHE-039”. For the same compound, the RBC sickling inhibition in the series on SS cells [7] (0.5 mM) is reported as 16%; in the series with SS cells [7] (1 mM), 29%; with SS cells [7] (2 mM), 85%. The Hb Modification on HbS [8] (0.5 mM) is recorded as 26%; at HbS [8] (1 mM), 45%; on HbS [8] (2 mM), 74%. The results for the P50-shift on Hb [9] (0.5 mM), on Hb [9] (1 mM) and at Hb [9] (2 mM) were 10%, 28% and 48%, respectively.

Turning to `O=Cc1c(O)cccc1OCc1ccc(C(=O)O)cc1` [Tucaresol, 4[2-formyl-3-hydroxyphenoxymethyl] benzoic acid], in [6], the Half-life is > 12 h.

Consider `COc1cc(C=O)ccc1O` [Vanillin, vanillin], for which the “Time course of P50-shift (in words)” value on HbA (1-24 h) is recorded as “did not have any effects beyond 4 h”. Moreover, the “Antisickling effect” value in the series with SS cells [4] is “showed no effect under anoxic conditions”.

As usually defined, the inhibition is the percentage by which the read-out fell short of the control.

The values are drawn from article PMC7679387, “VZHE-039, a novel antisickling agent that prevents erythrocyte sickling under both hypoxic and anoxic conditions” (Scientific Reports, 2020).
